# According to patent US4046878A, “Daunomycin analogues, their preparation and use” (Societa' Farmaceutici Italia S.p.A., priority 1974, dated 1977):
# Read-outs that look alike come from different tables or passages of the source.
# Columns and labels:
# L 1210 leukemia cells = experiment: Leukemia: survival of mice inoculated intraperitoneally with L 1210 leukemia cells; type: in vivo, BDF 1 mice; details: for Toxicity / % T/C (mean survival time) / Average Survival Time: once; for % T/C (mean survival time) / Average Survival Time: day after implantation; for Average Survival Time: control 8
# Description: The activity of the Test Compound was tested on BDF 1 mice inoculated intraperitoneally with 1×10^5 L 1210 leukemia cells/animal.
# The animals were treated once, the day after tumor implantation.
# (§1) *% T/C = (mean survival time of treated mice/mean survival time of contro
# HeLa cells = experiment: Viability (colony formation) of HeLa cells in vitro; type: cell-based; details: for IC50: Homo sapiens, HeLa, colony numbers 6 days later
# Description: In vitro studies were carried out on HeLa cells, maintained in Eagle medium supplemented with 10% calf serum. The cells were treated with daunomycin, adriamycin* and the Test Compound for different periods of times. The cell viability was assessed by […] of 200-300 cells/plate. Colony numbers were evaluated 6 days later.
# [1] = test system: Moloney Sarcoma Virus (MSV); experiment: Formation of foci by Moloney Sarcoma Virus in infected mouse embryo fibroblast cultures (antiviral activity); type: cell-based
# From the text: In vitro test on the formation of foci by Moloney Sarcoma Virus (MSV).
# solid tumors = experiment: Solid tumors: tumor weight in mice grafted subcutaneously with fragments of neoplastic tissue; details: for Toxicity / % T/C (mean tumor weight) / Tumor Weight: five days; for Tumor Weight: control 3.036, in g (unit assumed); for therapeutic index (T.I.): Maximum Tolerated dose (LD 10)/Minimum effective dose (T/C 0.10)
# Description: In vivo tests on the activity of the Test Compound as compared with adriamycin on solid tumors were carried out on groups of ten Swiss CD 1 mice subcutaneously grafted with fragments of neoplastic tissue and treated intravenously with the respective antibiotics for five days starting form the day following the tumor implantation.
# On the tenth day, all the test animals were sacrificed and their tumors removed and weighed.
# *The therapeutic index (T.I) is expressed as the ratio between the maximu
# tolerated dose (LD10) and the minimum effective dose, according to
# Skipper and Schmidt, Cancer Chemother, Rep. 17 : 1-128, 1962. The minimum
# effective dose indicates the dose which reduces by 90% the weight of
# tumors compared to controls : such 90% reduction correponds to a T/C valu
# **% T/C = (mean tumor weight of treated mice/mean tumor weight of control
# [2] = test system: ascites sarcoma 180 cells; experiment: Ascitic tumors: survival of mice inoculated intraperitoneally with ascites sarcoma 180 cells; type: in vivo, mice (Swiss CD 1); details: i.p.
# Description: Tests were carried out on groups of 10 mice (Swiss CD 1) inoculated intraperitoneally with 1 × 10^6 ascites sarcoma 180 cells/animal. The animals were treated intraperitoneally with different concentrations of the Test Compound and adriamycin once a day following tumor implantation.
# as §1
# **The figures in parentheses indicate the number of longterm survivors,
# animals, one animal remained alive at the end of 60 days. (*) % T/C =
# [3] = test system: mouse embryo fibroblast cultures; experiment: Cell proliferation in uninfected mouse embryo fibroblast cultures (cytotoxic activity); details: 3 days
# [4] = read-out: ID 50, 2 hrs. treatment
# [5] = read-out: ID 50, 8 hrs. treatment
# [6] = Fibroblast, 72 h, read-out: % Foci (control = 100)
smiles,measurement,setting,value
"COc1cccc2c1C(=O)c1c(O)c3c(c(O)c1C2=O)C[C@@](O)(C(=O)CO)C[C@@H]3O[C@H]1C[C@H](N)[C@H](O)[C@H](C)O1 [Adriamycin, reference compound]",Toxicity,L 1210 leukemia cells; 2.5 mg/kg,0/10
same,% T/C (mean survival time),L 1210 leukemia cells; 2.5 mg/kg,156%
same,Average Survival Time,L 1210 leukemia cells; 2.5 mg/kg,12.5
same,Toxicity,L 1210 leukemia cells; 5 mg/kg,0/10
same,% T/C (mean survival time),L 1210 leukemia cells; 5 mg/kg,175%
same,Average Survival Time,L 1210 leukemia cells; 5 mg/kg,14
same,Toxicity,L 1210 leukemia cells; 10 mg/kg,4/10
same,% T/C (mean survival time),L 1210 leukemia cells; 10 mg/kg,200%
same,Average Survival Time,L 1210 leukemia cells; 10 mg/kg,16
same,IC50,HeLa cells; [4],0.2 µg/mL
same,IC50,HeLa cells; [5],0.039 µg/mL
same,activity at 0.006 µg/mL,[1]; [6],26%
same,activity at 0.0125 µg/mL,[1]; [6],0%
same,activity at 0.025 µg/mL,[1]; [6],0%
same,Toxicity,solid tumors; 2.5 mg/kg i.v.,0/10
same,% T/C (mean tumor weight),"solid tumors; 2.5 mg/kg i.v., tenth day",48%
same,Tumor Weight,"solid tumors; 2.5 mg/kg i.v., tenth day",1.465
same,Toxicity,solid tumors; 3.5 mg/kg i.v.,7/10
same,% T/C (mean tumor weight),"solid tumors; 3.5 mg/kg i.v., tenth day",12%
same,Tumor Weight,"solid tumors; 3.5 mg/kg i.v., tenth day",0.364
same,therapeutic index (T.I.),solid tumors,1.8
same,"% T/C, average survival time","[2]; Experiment 1, 1 mg/kg day",146%
same,"number of longterm survivors, i.e., after 60 days","[2]; Experiment 1, 1 mg/kg day",1/9
same,"% T/C, average survival time","[2]; Experiment 1, 2 mg/kg day",400%
same,"number of longterm survivors, i.e., after 60 days","[2]; Experiment 1, 2 mg/kg day",5/10
same,"% T/C, average survival time","[2]; Experiment 1, 5 mg/kg day",311%
same,"number of longterm survivors, i.e., after 60 days","[2]; Experiment 1, 5 mg/kg day",4/10
same,"% T/C, average survival time","[2]; Experiment 2, 0.2 mg/kg day",107%
same,"number of longterm survivors, i.e., after 60 days","[2]; Experiment 2, 0.2 mg/kg day",0/10
same,"% T/C, average survival time","[2]; Experiment 2, 1 mg/kg day",143%
same,"number of longterm survivors, i.e., after 60 days","[2]; Experiment 2, 1 mg/kg day",1/10
same,"% T/C, average survival time","[2]; Experiment 2, 5 mg/kg day",225%
same,"number of longterm survivors, i.e., after 60 days","[2]; Experiment 2, 5 mg/kg day",1/10
same,"% T/C, average survival time","[2]; Experiment 2, 10 mg/kg day",193%
same,"number of longterm survivors, i.e., after 60 days","[2]; Experiment 2, 10 mg/kg day",0/10
same,"% T/C, average survival time","[2]; Experiment 3, 0.1 mg/kg day",100%
same,"number of longterm survivors, i.e., after 60 days","[2]; Experiment 3, 0.1 mg/kg day",0/10
same,"% T/C, average survival time","[2]; Experiment 3, 1 mg/kg day",169%
same,"number of longterm survivors, i.e., after 60 days","[2]; Experiment 3, 1 mg/kg day",1/9
"CC(=O)C1(O)Cc2c(O)c3c(c(O)c2C(O[C@H]2C[C@H](N)[C@H](O)[C@H](C)O2)C1)C(=O)c1ccccc1C3=O (mixture of isomers) [Test Compound, mixture of the α-anomers of (-)daunosaminyl(-)4-demethoxydaunomycinone and (-(daunosaminyl(+)4-demethoxydaunomycinone]",Toxicity,L 1210 leukemia cells; 0.75 mg/kg,0/10
same,% T/C (mean survival time),L 1210 leukemia cells; 0.75 mg/kg,156%
same,Average Survival Time,L 1210 leukemia cells; 0.75 mg/kg,12.5
same,Toxicity,L 1210 leukemia cells; 1.5 mg/kg,1/10
same,% T/C (mean survival time),L 1210 leukemia cells; 1.5 mg/kg,162%
same,Average Survival Time,L 1210 leukemia cells; 1.5 mg/kg,13
same,Toxicity,L 1210 leukemia cells; 3 mg/kg,7/10
same,% T/C (mean survival time),L 1210 leukemia cells; 3 mg/kg,87%
same,Average Survival Time,L 1210 leukemia cells; 3 mg/kg,7
same,"average survival time of treated animals, in words",L 1210 leukemia cells; non toxic doses tested,increased considerably
same,"active dose relative to adriamycin, in words",L 1210 leukemia cells; single treatment,active at lower doses than adriamycin
same,"activity on HeLa cell viability, in words",HeLa cells; 2 hours of treatment,as active as adriamycin
same,"inhibition of cell viability, in words",HeLa cells; 8 hours of treatment,higher than the inhibition by either adriamycin or daunomycin
same,IC50,"HeLa cells; 2 hrs. treatment, read-out: ID 50 (the source's name)",0.2 µg/mL
same,IC50,"HeLa cells; 8 hrs. treatment, read-out: ID 50 (the source's name)",0.002 µg/mL
same,"antiviral activity (MSV foci formation), in words",[1]; 3 days,lesser antiviral activity than adriamycin
same,activity at 0.006 µg/mL,"[1]; Fibroblast, 72 h, 0.006 γ/ml, 3 days, read-out: % Foci (control = 100)",54%
same,activity at 0.025 µg/mL,"[1]; Fibroblast, 72 h, 0.0250 γ/ml, 3 days, read-out: % Foci (control = 100)",12%
same,activity at 0.1 µg/mL,"[1]; Fibroblast, 72 h, 0.1 γ/ml, 3 days, read-out: % Foci (control = 100)",0%
same,activity at 0.6 µg/mL,"[1]; Fibroblast, 72 h, 0.6 γ/ml, 3 days, read-out: % Foci (control = 100)",0%
same,"cytotoxic activity, in words",[3],the same cytotoxic activity as adriamycin
same,Toxicity,solid tumors; 0.5 mg/kg i.v.,0/10
same,% T/C (mean tumor weight),"solid tumors; 0.5 mg/kg i.v., tenth day",76%
same,Tumor Weight,"solid tumors; 0.5 mg/kg i.v., tenth day",2.295
same,Toxicity,solid tumors; 1 mg/kg i.v.,0/10
same,% T/C (mean tumor weight),"solid tumors; 1 mg/kg i.v., tenth day",51%
same,Tumor Weight,"solid tumors; 1 mg/kg i.v., tenth day",1.550
same,inhibition of the tumor growth,"solid tumors; 1 mg/kg i.v., higher non toxic dose tested, tenth day",50%
same,Toxicity,solid tumors; 2 mg/kg i.v.,3/10
same,% T/C (mean tumor weight),"solid tumors; 2 mg/kg i.v., tenth day",16%
same,Tumor Weight,"solid tumors; 2 mg/kg i.v., tenth day",0.485
same,therapeutic index (T.I.),solid tumors,3.7
same,"% T/C, average survival time","[2]; Experiment 1, 1 mg/kg day",185%
same,"number of longterm survivors, i.e., after 60 days","[2]; Experiment 1, 1 mg/kg day",0/10
same,"% T/C, average survival time","[2]; Experiment 1, 2 mg/kg day",61%
same,"number of longterm survivors, i.e., after 60 days","[2]; Experiment 1, 2 mg/kg day",1/10
same,"% T/C, average survival time","[2]; Experiment 1, 5 mg/kg day",38%
same,"number of longterm survivors, i.e., after 60 days","[2]; Experiment 1, 5 mg/kg day",0/10
same,"% T/C, average survival time","[2]; Experiment 2, 0.2 mg/kg day",146%
same,"number of longterm survivors, i.e., after 60 days","[2]; Experiment 2, 0.2 mg/kg day",0/10
same,"% T/C, average survival time","[2]; Experiment 2, 1 mg/kg day",107%
same,"number of longterm survivors, i.e., after 60 days","[2]; Experiment 2, 1 mg/kg day",0/10
same,"% T/C, average survival time","[2]; Experiment 2, 1.5 mg/kg day",79%
same,"number of longterm survivors, i.e., after 60 days","[2]; Experiment 2, 1.5 mg/kg day",0/10
same,"% T/C, average survival time","[2]; Experiment 3, 0.12 mg/kg day",115%
same,"number of longterm survivors, i.e., after 60 days","[2]; Experiment 3, 0.12 mg/kg day",0/10
same,"% T/C, average survival time","[2]; Experiment 3, 0.25 mg/kg day",188%
same,"number of longterm survivors, i.e., after 60 days","[2]; Experiment 3, 0.25 mg/kg day",1/10
same,"% T/C, average survival time","[2]; Experiment 3, 0.5 mg/kg day",181%
same,"number of longterm survivors, i.e., after 60 days","[2]; Experiment 3, 0.5 mg/kg day",0/10
same,"% T/C, average survival time","[2]; Experiment 3, 1 mg/kg day",223%
same,"number of longterm survivors, i.e., after 60 days","[2]; Experiment 3, 1 mg/kg day",1/10
same,"active dose relative to adriamycin, in words",[2]; once a day,active at lower doses than adriamycin
same,"effect on ascitic tumor growth, in words",[2]; once a day,remarkable effect on ascitic tumor growth
COc1cccc2c1C(=O)c1c(O)c3c(c(O)c1C2=O)C[C@@](O)(C(C)=O)C[C@@H]3O[C@H]1C[C@H](N)[C@H](O)[C@H](C)O1 [Daunomycin],IC50,HeLa cells; [4],0.095 µg/mL
same,IC50,HeLa cells; [5],0.023 µg/mL
